Reference: ChEMBL document CHEMBL5104151, “Synthesis of new pyrazolo[4,3-a]phenanthridine Pim-1 inhibitors and evaluation of their cytotoxic activity towards the MOLM-13 acute myeloid leukemia cell line” (Bioorg Med Chem Lett, 2022)

Assays:
[1] = target: T1, Serine/threonine-protein kinase pim-1 (Homo sapiens, UniProt P11309); test: Inhibition of full-length human Pim-1 using RSRHSSYPAG as substrate incubated in presence of [gamma33P]ATP
Target sequence in this assay (P11309 whole entry): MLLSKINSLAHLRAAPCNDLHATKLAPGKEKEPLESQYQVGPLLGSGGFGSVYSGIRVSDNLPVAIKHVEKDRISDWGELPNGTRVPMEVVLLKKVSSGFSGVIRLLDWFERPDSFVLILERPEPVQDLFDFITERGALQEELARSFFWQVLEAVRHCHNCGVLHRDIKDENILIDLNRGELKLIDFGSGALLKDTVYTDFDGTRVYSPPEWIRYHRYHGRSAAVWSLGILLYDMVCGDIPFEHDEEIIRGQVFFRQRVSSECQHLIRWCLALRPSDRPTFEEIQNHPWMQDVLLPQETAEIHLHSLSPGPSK

[2] = target: T1, Serine/threonine-protein kinase pim-1; test: Inhibition of full-length human Pim-1 using RSRHSSYPAG as substrate incubated in presence of [gamma33P]ATP and assessed as residual activity at 10 uM relative to control
Target sequence in this assay (P11309 whole entry, looked up): as the sequence (P11309 whole entry) above

MOLM-13 [3] = test: Antiproliferative activity against human MOLM-13 cells measured after 24 hrs by WST-1 assay; type: functional, cell-based; conditions: MOLM-13, 24 h
[4] = Cytotoxicity against rat NRK cells measured after 72 hrs by WST-1 assay; type: toxicity, cell-based
[5] = target: T1, Serine/threonine-protein kinase pim-1; test: Inhibition of full-length human Pim-1 using RSRHSSYPAG as substrate incubated in presence of [gamma33P]ATP and assessed as residual activity at 1 uM relative to control
Target sequence in this assay (P11309 whole entry, looked up): as the sequence (P11309 whole entry) above

MOLM-13 [6] = test: Antiproliferative activity against human MOLM-13 cells measured after 72 hrs by WST-1 assay; type: functional, cell-based; conditions: MOLM-13, 72 h
MOLM-13 [7] = test: Induction of apoptosis in human MOLM-13 cells incubated for 72 hrs and assessed as presence of apoptotic nuclei; type: functional, cell-based; conditions: MOLM-13, 72 h

IC50 [1] | Activity [2] | EC50 (MOLM-13 [3]) | Activity [5] | EC50 (MOLM-13 [6]) | EC50 (MOLM-13 [7]) | SMILES | EC50 at 72 h [4]
31 nM | 1.5% | 2.9 µM | 5.3% | 1700 nM | 4.6 µM | C=Cc1n[nH]c2cc([N+](=O)[O-])c3ncc4ccccc4c3c12 | 24 µM
 | 29% | > 250 µM | 77% | 62000 nM | > 250 µM | O=C(O)c1cc2[nH]ncc2c2c1ncc1ccccc12 | 
 | 21% | 50 µM | 38% | 30000 nM | 61 µM | COC(=O)c1cc2[nH]ncc2c2c1ncc1ccccc12 | 
50 nM | 1.4% | 3.5 µM | 8.6% | 1700 nM | 6.6 µM | O=[N+]([O-])c1cc2[nH]nc(I)c2c2c1ncc1ccccc12 | 28 µM
125 nM | 7% |  | 23% | 2500 nM | > 250 µM | NC(=O)c1cc2[nH]ncc2c2c1ncc1ccccc12 | 
 |  | 0.8 µM |  | 200 nM | 3.7 µM | O=[N+]([O-])c1cc2[nH]ncc2c2c1ncc1ccccc12 | > 30 µM
 | 18% |  | 43% | 1200 nM | > 250 µM | FC(F)(F)c1cc2[nH]ncc2c2c1ncc1ccccc12 | 
